Target: Steroidogenic factor 1 (Homo sapiens, UniProt Q13285)
Assay: SF-1 inhibitor potency, dose response, cell-based, CHO-K1, Gal4-SF-1 LBD, luciferase luminescence (AID 600)
[1] = inactive by the depositor's call

Sequence of Steroidogenic factor 1 (Q13285 whole entry, the tested form may be a part): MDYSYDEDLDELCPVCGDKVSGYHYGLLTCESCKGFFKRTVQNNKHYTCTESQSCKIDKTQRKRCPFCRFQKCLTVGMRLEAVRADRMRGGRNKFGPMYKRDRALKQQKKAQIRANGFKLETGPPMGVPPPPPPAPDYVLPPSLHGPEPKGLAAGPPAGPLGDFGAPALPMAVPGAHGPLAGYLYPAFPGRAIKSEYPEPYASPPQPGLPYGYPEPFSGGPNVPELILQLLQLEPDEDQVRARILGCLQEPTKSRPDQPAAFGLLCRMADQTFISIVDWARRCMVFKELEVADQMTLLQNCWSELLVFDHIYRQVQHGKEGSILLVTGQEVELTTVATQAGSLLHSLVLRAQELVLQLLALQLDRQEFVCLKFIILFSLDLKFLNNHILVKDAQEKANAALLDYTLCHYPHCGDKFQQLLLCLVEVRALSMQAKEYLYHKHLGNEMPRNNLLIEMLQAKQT

| SMILES | IC50 [µM] | IC50 [1] [µM] |
| --- | --- | --- |
| Cn1c(SC2=CS(=O)(=O)c3ccccc32)nc2ccccc21 [2-(1,1-Dioxo-1H-1lambda*6*-benzo[b]thiophen-3-ylsulfanyl)-1-methyl-1H-benzoimidazole] | > 3.67 | – |
| O=c1c2ccccc2cnn1-c1nc2ccccc2s1 [2-(1,3-benzothiazol-2-yl)-1-phthalazinone] | 2.12 | – |
| c1ccc2nc(-c3nc4ccccc4o3)ccc2c1 [2-(1,3-benzoxazol-2-yl)quinoline] | 6.81 | – |
| COc1ccc(OC)c(NC(=O)CSc2nnnn2-c2ccc3c(c2)OCO3)c1 [2-(1-Benzo[1,3]dioxol-5-yl-1H-tetrazol-5-ylsulfanyl)-N-(2,5-dimethoxy-phenyl)-acetamide] | 2.35 | – |
| CCn1c(C)nc2cc(-c3nc4n(n3)Cc3ccccc3-4)ccc21 [2-(1-ethyl-2-methyl-5-benzimidazolyl)-5H-[1,2,4]triazolo[5,1-a]isoindole] | < 0.00503 | – |
| CCN1C=CC(=C2C(=O)c3ccccc3C2=O)C=C1 [2-(1-ethyl-4-pyridinylidene)indene-1,3-dione] | 0.954 | – |
| O=C1c2ccccc2C(=O)C1c1nccc2ccccc12 [2-(1-isoquinolinyl)indene-1,3-dione] | 4.03 | – |
| CC1(C)CC(=O)C2=C(C1)Oc1nc3ccccc3cc1C2C(C#N)C#N (configuration not stated) [2-(1-keto-3,3-dimethyl-4,12-dihydro-2H-chromeno[2,3-b]quinolin-12-yl)malononitrile] | 7.53 | – |
| c1c2c(cc3sc(N4CCCCC4)nc13)OCCO2 [2-(1-piperidinyl)-6,7-dihydro-[1,4]dioxino[2,3-f][1,3]benzothiazole] | 3.91 | – |
| CCCN1C=CC(=C2C(=O)c3ccccc3C2=O)C=C1 [2-(1-propyl-4-pyridinylidene)indene-1,3-dione] | 0.363 | – |
| Cc1cnc(NC(=O)COc2ccccc2Cl)s1 [2-(2-chloranylphenoxy)-N-(5-methyl-1,3-thiazol-2-yl)ethanamide] | > 1.22 | – |
| Cn1c(-c2ccco2)nc2cc3ccccc3cc21 [2-(2-furanyl)-3-methylbenzo[f]benzimidazole] | – | 10.4 |
| CCCOc1ccc(-c2nnc(-c3ccco3)o2)cc1 [2-(2-furanyl)-5-(4-propoxyphenyl)-1,3,4-oxadiazole] | > 3.67 | – |
| CCOc1ccc(-c2nnc(-c3ccco3)o2)cc1 [2-(2-furyl)-5-p-phenetyl-1,3,4-oxadiazole] | 5.29 | – |
| COc1ccccc1CC(=O)N1CCN(c2cccc(C(F)(F)F)c2)CC1 [2-(2-methoxyphenyl)-1-[4-[3-(trifluoromethyl)phenyl]-1-piperazinyl]ethanone] | – | 19.7 |
| c1ccc2c(c1)CCN(c1nc3cc4c(cc3s1)OCCO4)C2 [2-(3,4-dihydro-1H-isoquinolin-2-yl)-6,7-dihydro-[1,4]dioxino[2,3-f][1,3]benzothiazole] | 5.34 | – |
| COc1ccc(CC(=O)Nc2cccc(-c3nnc(-c4cccc(C)c4)o3)c2)cc1OC [2-(3,4-dimethoxyphenyl)-N-[3-[5-(3-methylphenyl)-1,3,4-oxadiazol-2-yl]phenyl]acetamide] | > 3.67 | – |
| COc1ccc(CC(=O)Nc2ccc(-c3nnc(-c4ccccc4)o3)cc2)cc1OC [2-(3,4-dimethoxyphenyl)-N-[4-(5-phenyl-1,3,4-oxadiazol-2-yl)phenyl]acetamide] | 2.44 | – |
| CCOC(=O)c1cnc(-n2nc(C)cc2C)nc1NC(C)c1ccccc1 (configuration not stated) [2-(3,5-dimethyl-1-pyrazolyl)-4-(1-phenylethylamino)-5-pyrimidinecarboxylic acid ethyl ester] | 6.88 | – |
| CCOc1ccc(Nc2cc(C)nc(-n3nc(C)cc3C)n2)cc1 [2-(3,5-dimethyl-1-pyrazolyl)-N-(4-ethoxyphenyl)-6-methyl-4-pyrimidinamine] | 7.83 | – |
| COc1ccc(Nc2cc(C)nc(-n3nc(C)cc3C)n2)cc1 [2-(3,5-dimethyl-1-pyrazolyl)-N-(4-methoxyphenyl)-6-methyl-4-pyrimidinamine] | – | 12.5 |
| Nc1cccc(-c2nc3ccc(N)cc3s2)c1 [2-(3-Amino-phenyl)-benzothiazol-6-ylamine] | > 3.67 | – |
| Cc1csc(NC(=O)Cc2nn(C)c(=O)c3ccccc23)n1 [2-(3-methyl-4-oxidanylidene-phthalazin-1-yl)-N-(4-methyl-1,3-thiazol-2-yl)ethanamide] | – | 34.3 |
| O=C(CSC1=NCCS1)Nc1ccnc2ccccc12 [2-(4,5-dihydro-1,3-thiazol-2-ylsulfanyl)-N-quinolin-4-yl-ethanamide] | – | 15.1 |
| Cc1nnc(Sc2nc(Sc3nnc(C)s3)nc(N3CCN(C)CC3)n2)s1 [2-(4-Methyl-piperazin-1-yl)-4,6-bis-(5-methyl-[1,3,4]thiadiazol-2-ylsulfanyl)-[1,3,5]triazine] | 2.64 | – |
| O=C(Cc1ccc(Cl)cc1)Nc1ccc(-c2nnc(-c3ccco3)o2)cc1 [2-(4-chlorophenyl)-N-[4-[5-(2-furanyl)-1,3,4-oxadiazol-2-yl]phenyl]acetamide] | 9.18 | – |

| SMILES | IC50 [µM] | IC50 [1] [µM] |
| --- | --- | --- |
| COc1ccc(-c2cc3nc4n(c(=O)c3s2)CCC4)cc1 [2-(4-methoxyphenyl)-6,7-dihydropyrrolo[1,2-a]thieno[3,2-d]pyrimidin-9(5H)-one] | 4.32 | – |
| COc1ccc(-c2cc3nc4n(c(=O)c3s2)CCOC4)cc1 [2-(4-methoxyphenyl)-7,8-dihydro-5H-thieno[1,2]pyrimido[4,5-a][1,4]oxazin-10-one] | 6.7 | – |
| COc1ccc(CC(=O)Nc2ccc(-c3nnc(-c4ccccc4)o3)cc2)cc1 [2-(4-methoxyphenyl)-N-[4-(5-phenyl-1,3,4-oxadiazol-2-yl)phenyl]acetamide] | – | 18.3 |
| CC1CCN(c2nc3ccc(C(=O)O)cc3s2)CC1 [2-(4-methyl-1-piperidinyl)-1,3-benzothiazole-6-carboxylic acid] | 2.25 | – |
| c1c2c(cc3sc(N4CCOCC4)nc13)OCCO2 [2-(4-morpholinyl)-6,7-dihydro-[1,4]dioxino[2,3-f][1,3]benzothiazole] | > 3.67 | – |
| Cc1ccc(N2C(=O)c3ccccc3C2O)nc1 (configuration not stated) [2-(5-methylpyridin-2-yl)-3-oxidanyl-3H-isoindol-1-one] | 8.67 | – |
| CCOc1ccc(-c2nc(CSCC(=O)NCc3ccco3)c(C)o2)cc1 [2-({[2-(4-ethoxyphenyl)-5-methyl-1,3-oxazol-4-yl]methyl}thio)-N-(2-furylmethyl)acetamide] | 0.189 | – |
| CCOc1ccc(-c2nc(CSCC(=O)NCCN3CCOCC3)c(C)o2)cc1 [2-({[2-(4-ethoxyphenyl)-5-methyl-1,3-oxazol-4-yl]methyl}thio)-N-(2-morpholin-4-ylethyl)acetamide] | 4.36 | – |
| CCc1ccc(-c2nc(CSCC(=O)NCCCN3CCCC3=O)c(C)o2)cc1 [2-({[2-(4-ethylphenyl)-5-methyl-1,3-oxazol-4-yl]methyl}thio)-N-[3-(2-oxopyrrolidin-1-yl)propyl]acetamide] | 4.32 | – |
| COc1cc(CC(NC(C)=O)C(=O)NC2CCN(c3nc(C)cc(C)c3C#N)CC2)cc(OC)c1 (configuration not stated) [2-Acetylamino-N-(3'-cyano-4',6'-dimethyl-3,4,5,6-tetrahydro-2H-[1,2']bipyridinyl-4-yl)-3-(3,5-dimethoxy-phenyl)-propionamide] | > 33 | – |
| Nc1nc(Cl)nc2c1ncn2[C@H]1C[C@H](O)[C@@H](CO)O1 [2-CHLORO-2'-DEOXYADENOSINE] | 0.454 | – |
| Cc1cc(C)n(-c2nc(NC(C)(C)C)nc(NC(C)(C)C)n2)n1 [2-N,4-N-ditert-butyl-6-(3,5-dimethylpyrazol-1-yl)-1,3,5-triazine-2,4-diamine] | 8.2 | – |
| CCCCOc1ccccc1NC(=O)Cn1c(-c2nonc2N)nc2ccccc21 [2-[2-(4-amino-1,2,5-oxadiazol-3-yl)-1-benzimidazolyl]-N-(2-butoxyphenyl)acetamide] | > 3.67 | – |
| CN1CCN(C(=O)COc2ccc(-c3nc4ccccc4s3)cc2)CC1 [2-[4-(1,3-benzothiazol-2-yl)phenoxy]-1-(4-methyl-1-piperazinyl)ethanone] | 7.32 | – |
| Cc1cc(N2CCN(c3nc4ccccc4s3)CC2)n2ncnc2n1 [2-[4-(5-methyl-[1,2,4]triazolo[1,5-a]pyrimidin-7-yl)-1-piperazinyl]-1,3-benzothiazole] | – | 22.9 |
| c1ccc(-c2noc(-c3ccc4c(c3)OCO4)n2)nc1 [2-[5-(1,3-benzodioxol-5-yl)-1,2,4-oxadiazol-3-yl]pyridine] | 1.36 | – |
| c1ccc(-c2noc(-c3ccc4ccccc4c3)n2)nc1 [2-[5-(2-naphthyl)-1,2,4-oxadiazol-3-yl]pyridine] | 0.7 | – |
| Clc1cccc(-c2nc(-c3ccccn3)no2)c1 [2-[5-(3-Chloro-phenyl)-[1,2,4]oxadiazol-3-yl]-pyridine] | > 3.67 | – |
| O=S1(=O)C=C(Sc2nc3ccccc3s2)c2ccccc21 [2-[(1,1-dioxido-1-benzothien-3-yl)thio]-1,3-benzothiazole] | 0.713 | – |
| O=C(CSc1nnnn1C1CC2CCC1C2)Nc1ccnc2ccccc12 (configuration not stated) [2-[(1-bicyclo[2.2.1]hept-2-yl-1H-tetrazol-5-yl)thio]-N-4-quinolinylacetamide] | 0.977 | – |
| COC(=O)c1sc(NC(=O)c2ccc(OC)cc2OC)nc1C [2-[(2,4-dimethoxybenzoyl)amino]-4-methyl-thiazole-5-carboxylic acid methyl ester] | 2.86 | – |
| Cc1cc(C=c2sc3nc4ccccc4n3c2=O)c(C)n1-c1ccccn1 [2-[(2,5-dimethyl-1-pyridin-2-yl-pyrrol-3-yl)methylidene]-[1,3]thiazolo[3,2-a]benzimidazol-1-one] | > 0.00503 | – |
| Cc1cccc(N2CCN(C(=O)CSCc3c(C)noc3C)CC2)c1C [2-[(3,5-dimethyl-1,2-oxazol-4-yl)methylsulfanyl]-1-[4-(2,3-dimethylphenyl)piperazin-1-yl]ethanone] | 0.876 | – |
| CCc1ccc(-c2nc(CSCC(=O)N3CCN(c4ncccn4)CC3)c(C)o2)cc1 [2-[[2-(4-ethylphenyl)-5-methyl-1,3-oxazol-4-yl]methylsulfanyl]-1-(4-pyrimidin-2-ylpiperazin-1-yl)ethanone] | – | 37.1 |
| Cc1cccc2cc(C#N)c(SCC(=O)N3CC(=O)Nc4ccccc43)nc12 [2-[[2-keto-2-(3-keto-2,4-dihydroquinoxalin-1-yl)ethyl]thio]-8-methyl-quinoline-3-carbonitrile] | > 3.67 | – |
| CCOC(=O)CSc1nc2cc(C(=O)NCc3ccco3)ccc2c(=O)n1-c1ccc(F)cc1 [2-[[3-(4-fluorophenyl)-7-(2-furfurylcarbamoyl)-4-keto-quinazolin-2-yl]thio]acetic acid ethyl ester] | > 11 | – |
